Where two headings read alike, the source gives them in different places. No end group written: not given here.
Legend:
[1] = test system: S. aureus ATCC 33592; assay type: cell-based, Staphylococcus aureus
Method: (§1) The strains that were used in this study (Table 2 and Table S1) were cultivated at 37 °C in cation-adjusted Mueller–Hinton broth (CAMB) in Erlenmeyer flasks, or on the same medium with agar in Petri dishes. Exceptionally, Mycobacterium smegmatis was cultivated at 37 °C in brain heart infusion (BHI) medium that was supplemented with 1% Tween-80 in Erlenmeyer flasks, or on the same medium lacking detergent but with agar in Petri dishes. Strains listed with Robert Koch Institute (RKI) strain numbers are clinical isolates from the RKI strain collection originating from hospitalized patients in Germany. The remaining strains originated from the Sanofi strain collection and they were originally purchased from the American Type Culture Collection or the German Collection of Microorganisms and Cell Cultures. Meropenem/colistin-resistant strains were maintained, as described above, with the appropriate antibiotic added at levels below the minimal inhibitory concentration (MIC).
(§2) The MIC values were determined in 384-well microtiter plates with an assay volume of 20 µL. Immediately before each assay, the cultures of test organisms (bacteria grown for 18 h, Candida albicans and M. smegmatis grown for 48 h) were diluted with the appropriate medium to a density of 1 × 10^6 cells/mL (C. albicans), 1 × 10^5 cells/mL (M. smegmatis) or 5 × 10^5 cells per mL (other species). […] We transferred 2-µL aliquots from this dilution series to new 384-well microtiter plates while using a CyBio-Well 384-channel automated pipettor (Analytic Jena, Jena, Germany) and added 18 µL of the diluted suspension of each test species using a Viafill reagent dispenser (Integra), thus reducing the final peptide concentration 10-fold to the range 1024–0.03125 µg/mL. […] The growth of M. smegmatis was measured using the BacTiter-Glo luminescence test system (Promega, Madison, WI, USA). The growth of the other species was determined by visual inspection of the microtiter plate and turbidimetry based on the optical density at 600 nm (OD600). The MIC was defined as the peptide concentration at which no bacterial growth was observed. We supplemented the test medium with either 150 mM NaCl or 1.25 mM CaCl2 to represent monovalent and divalent cations to simulate physiological conditions.

[2] = test system: E. coli ATCC 25922
Method: as §1
The MIC values were determined in 384-well microtiter plates with an assay volume of 20 µL. Immediately before each assay, the cultures of test organisms (bacteria grown for 18 h, Candida albicans and M. smegmatis grown for 48 h) were diluted with the appropriate medium to a density of 1 × 10^6 cells/mL (C. albicans), 1 × 10^5 cells/mL (M. smegmatis) or 5 × 10^5 cells per mL (other species). The peptides were dissolved in sterile water at a concentration of 10.24 mg/mL and a 1:2 dilution series was prepared in a 384-well microtiter plate to achieve the concentration range 10,240–0.3125 µg/mL in a volume of 50 µL. We transferred 2-µL aliquots from this dilution series to new 384-well microtiter plates while using a CyBio-Well 384-channel automated pipettor (Analytic Jena, Jena, Germany) and added 18 µL of the diluted suspension of each test species using a Viafill reagent dispenser (Integra), thus reducing the final peptide concentration 10-fold to the range 1024–0.03125 µg/mL. The cells were incubated at 37 °C and 85% relative humidity, shaking at 180 rpm for 48 h (M. smegmatis), 24 h (C. albicans) or 18 h (other species). The growth of M. smegmatis was measured using the BacTiter-Glo luminescence test system (Promega, Madison, WI, USA). The growth of the other species was determined by visual inspection of the microtiter plate and turbidimetry based on the optical density at 600 nm (OD600). […] We supplemented the test medium with either 150 mM NaCl or 1.25 mM CaCl2 to represent monovalent and divalent cations to simulate physiological conditions.

[3] = test system: Canida albicans FH2173; assay type: cell-based, Candida albicans; settings: 24 h
Method: as §1, §2

[4] = test system: E. coli RKI 6A-6; test: microbe, parasite or virus in culture; assay type: cell-based, Escherichia coli
Method: as §1, §2

[5] = test system: A. baumannii RKI 19/09; test: microbe, parasite or virus in culture; assay type: cell-based, Acinetobacter baumannii
Method: as §1, §2

[6] = test system: K. pneumoniae RKI 268/15; assay type: cell-based, Klebsiella pneumoniae
Method: as §1, §2

[7] = test system: K. pneumoniae RKI 68/16; assay type: cell-based, Klebsiella pneumoniae
Method: as §1, §2

[8] = test system: Enterococcus faecium DSM 17050; assay type: cell-based
Method: as §1, §2

[9] = test system: Escherichia coli D31; assay type: cell-based
Method: as §1, §2

[10] = test system: Klebsiella oxytoca RKI 52/07; assay type: cell-based
Method: as §1, §2

[11] = test system: Listeria monocytogenes DSM 20600; assay type: cell-based
Method: as §1, §2

[12] = test system: Mycobacterium smegmatis ATCC 607; assay type: cell-based
Method: as §1, §2

[13] = test system: Proteus mirabilis DSM 4479; assay type: cell-based
Method: as §1, §2

[14] = test system: Pseudomonas aeruginosa ATCC 27853; assay type: cell-based
Method: as §1, §2

[15] = test system: Staphylococcus aureus ATCC 25923; assay type: cell-based
Method: as §1, §2

[16] = test system: Staphylococcus epidermidis ATCC 35984; assay type: cell-based
Method: as §1, §2

[17] = test system: E. coli RKI 131/08; test: microbe, parasite or virus in culture; assay type: cell-based, Escherichia coli
Method: as §1, §2

[18] = test system: K. pneumoniae RKI 93/10; test: microbe, parasite or virus in culture; assay type: cell-based, Klebsiella pneumoniae
Method: as §1, §2

[19] = test system: Enterobacter cloacae RKI 146/09; test: microbe, parasite or virus in culture; assay type: cell-based
Method: as §1, §2

[20] = test system: Acinetobacter baumannii ATCC 19606; assay type: cell-based
Method: as §1, §2

[21] = test system: Klebsiella pneumoniae DSM 30104; assay type: cell-based
Method: as §1, §2

[22] = test system: Stenotrophomonas maltophilia RKI 136/09; assay type: cell-based; settings: n=3
Method: as §1, §2

[23] = CAMB + 0.075 µg/mL colistin (Col), n=3
[24] = CAMB adjusted to 1.25 mM CaCl2, n=3
[25] = CAMB adjusted to 150 mM NaCl, n=3

Measured: MIC

GFLKKIGKKLEGAVQRTRDATIQTIAVAQAAANVAATAKQG [EtCec1]
256 µg/mL: [14]; ATCC 27853, 18 h
16 µg/mL: [2]; ATCC 25922, 18 h | [5]; RKI 19/09, 18 h | [9]; D31, 18 h | [10]; 18 h
64 µg/mL: [6]; RKI 268/15, 18 h | [7]; RKI 68/16, 18 h
32 µg/mL: [4]; RKI 6A-6, 18 h
>1024 µg/mL: [1]; ATCC 33592, 18 h | [3] | [8]; DSM 17050, 18 h | [11]; DSM 20600, 18 h | [12]; ATCC 607, 48 h | [13]; DSM 4479, 18 h | [15]; ATCC 25923, 18 h | [16]; ATCC 35984, 18 h

GFLKKVGKKLEGASDLTRDATIQTIAVAQAAANVAATAKQG [EtCec3]
>1024 µg/mL: [1]; ATCC 33592, 18 h | [2]; ATCC 25922, 18 h | [3] | [17]; RKI 131/08, 18 h | [18]; RKI 93/10, 18 h | [19]; RKI 146/09, 18 h | [5]; RKI 19/09, 18 h | [20]; ATCC 19606, 18 h | [8]; DSM 17050, 18 h | [10]; 18 h | [21]; DSM 30104, 18 h | [11]; DSM 20600, 18 h | [12]; ATCC 607, 48 h | [13]; DSM 4479, 18 h | [14]; ATCC 27853, 18 h | [15]; ATCC 25923, 18 h | [16]; ATCC 35984, 18 h

GWLRDFGKRIERTGQNIRDATIQTIGIAQEAANVAATLKG [EtCec2]
256 µg/mL: [4]; Table 4, CAMB, n=3 | [18]; [24] | [18]; [25] | [6]; Table 4, CAMB, n=3 | [7]; Table 4, CAMB, n=3 | [22]; CAMB adjusted to 150 mM NaCl
64 µg/mL: [2]; [25] | [2]; CAMB, 18 h, 37 °C, n = 4 | [2]; Table 4, CAMB, n=3 | [17]; [24] | [19]; [23] | [19]; Table 4, CAMB, n=3 | [20]; [24]
>1024 µg/mL: [1]; CAMB, 18 h, 37 °C, n = 4 | [3]; CAMB, 37 °C, n = 4 | [8]; CAMB, 18 h, 37 °C, n = 4 | [11]; CAMB, 18 h, 37 °C, n = 4 | [12]; BHI, 48 h, 37 °C, BacTiter-Glo, n = 4 | [13]; CAMB, 18 h, 37 °C, n = 4 | [14]; CAMB, 18 h, 37 °C, n = 4 | [15]; CAMB, 18 h, 37 °C, n = 4 | [16]; CAMB, 18 h, 37 °C, n = 4
512 µg/mL: [22]; Table 4, CAMB
128 µg/mL: [2]; [24] | [18]; Table 4, CAMB, n=3 | [19]; [24] | [19]; [25]
8 µg/mL: [20]; [25]
16 µg/mL: [18]; [23] | [5]; [25] | [5]; Table 4, CAMB, n=3 | [20]; [23] | [9]; CAMB, 18 h, 37 °C, n = 4 | [21]; [25]
32 µg/mL: [17]; [25] | [17]; Table 4, CAMB, n=3 | [20]; CAMB, 18 h, 37 °C, n = 4 | [20]; Table 4, CAMB, n=3 | [10]; Table 5, CAMB, n=3 | [21]; [24] | [21]; CAMB, 18 h, 37 °C, n = 4 | [21]; Table 4, CAMB, n=3
2 µg/mL: [17]; [23] | [10]; [23] | [21]; [23]
4 µg/mL: [2]; [23] | [5]; [23]

colistin [reference compound]
0.5 µg/mL: [2]; Table 5, CAMB, n=3 | [17]; Table 5, CAMB, n=3 | [5]; Table 5, CAMB, n=3 | [21]; Table 5, CAMB, n=3
2 µg/mL: [19]; Table 5, CAMB, n=3 | [10]; Table 5, CAMB, n=3
1 µg/mL: [18]; Table 5, CAMB, n=3 | [20]; Table 5, CAMB, n=3
